# Data published in patent US20100137309A1, “FUNGICIDES PHENYL-PYRIMIDNYL-AMINO DERIVATIVES” (priority 2007, published 2010).
# Test system: Sphaerotheca fuliginea
# Test: In vivo test on Sphaerotheca fuliginea (cucurbits powdery mildew), DMF/emulsifier preparation (Example B)
# Settings: 500 ppm; young cucurbit plants sprayed preventively one day before inoculation; grading 7 days after contamination
# Experimental: In Vivo Test on Sphaerotheca fuliginea (Cucurbits Powdery Mildew) To produce a suitable preparation of active compound, 1 part by weight of active compound is mixed with 49 parts by weight of solvent (N,N-dimethylformamide) and 1 part by weight of emulsifier (alkylarylpolyglycolether), and the concentrate is diluted with water to the desired concentration. To test for preventive activity, young cucurbit plants are sprayed with the preparation of active compound at the stated rate of application. One day after this treatment, the plants are inoculated with an aqueous spore suspension of Sphaerotheca fuliginea. […] Grading is carried out 7 days after the contamination, in comparison with the control plants. […] A16.
row,Compound,good protection
1,COCCOC(=O)c1cc(-c2ccnc(Nc3cccc(OC)c3)n2)ccn1 [Compound A16],at least 70%

# Test system: not listed separately
# Test: Log p determination of the compounds of Table A
# Settings: not given
row,logP,Compound
1,3.19,"CCN(CC)C(=S)c1cc(-c2ccnc(Nc3cccc(Cl)c3)n2)ccn1 [Compound A391, 4-{2-[(3-chlorophenyl)amino]pyrimidin-4-yl}-N,N-diethylpyridine-2-carbothioamide]"

# Test system: not listed separately
# Test: Log p of the compounds of Table A
# Settings: not given
row,logP,Compound
1,2.98,"O=C(NCCCN1CCCCCC1=O)c1cc(-c2ccnc(Nc3cccc(Cl)c3)n2)ccn1 [Compound A1, 4-{2-[(3-chlorophenyl)amino]pyrimidin-4-yl}-N-[3-(2-oxoazepan-1-yl)propyl]pyridine-2-carboxamide]"
2,4.7,"CC(C)CCNC(=O)c1cc(-c2ccnc(Nc3cccc(Cl)c3)n2)ccn1 [Compound A19, 4-{2-[(3-chlorophenyl)amino]pyrimidin-4-yl}-N-(3-methylbutyl)pyridine-2-carboxamide]"

# Same assay, conditions: Table A
row,Compound,Log p
1,CC(CN(C)C)NC(=O)c1cc(-c2ccnc(Nc3cccc(Cl)c3)n2)ccn1 (stereo not shown) [Compound A38],1.81
2,COCCCNC(=O)c1cc(-c2ccnc(Nc3cccc(Cl)c3)n2)ccn1 [Compound A39],3.31
3,O=C(NC1CCCC1)c1cc(-c2ccnc(Nc3cccc(Cl)c3)n2)ccn1 [Compound A40],4.48
4,CCC(CC)NC(=O)c1cc(-c2ccnc(Nc3cccc(Cl)c3)n2)ccn1 [Compound A44],4.72
5,CCC(COC)NC(=O)c1cc(-c2ccnc(Nc3cccc(Cl)c3)n2)ccn1 (stereo not shown) [Compound A45],4.02
6,CCC(C)NC(=O)c1cc(-c2ccnc(Nc3cccc(Cl)c3)n2)ccn1 (stereo not shown) [Compound A46],4.3
7,O=C(NC1CCC1)c1cc(-c2ccnc(Nc3cccc(Cl)c3)n2)ccn1 [Compound A47],4.1
8,CCCNC(=O)c1cc(-c2ccnc(Nc3cccc(Cl)c3)n2)ccn1 [Compound A56],3.8
9,CC(C)NC(=O)c1cc(-c2ccnc(Nc3cccc(Cl)c3)n2)ccn1 [Compound A57],3.83
10,CCCCNC(=O)c1cc(-c2ccnc(Nc3cccc(Cl)c3)n2)ccn1 [Compound A58],4.31
11,CNC(=O)c1cc(-c2ccnc(Nc3cccc(Cl)c3)n2)ccn1 [Compound A59],2.94
12,O=C(NC1CCS(=O)(=O)C1)c1cc(-c2ccnc(Nc3cccc(Cl)c3)n2)ccn1 (stereo not shown) [Compound A60],2.8
13,CCOC1CCC(NC(=O)c2cc(-c3ccnc(Nc4cccc(Cl)c4)n3)ccn2)CC1 (stereo not shown) [Compound A61],4.54

# Test system: not listed separately
# Test: Log p of the compounds of Table A
# Settings: not given
# Remark: another data set of the same source
row,Compound,Log p
1,CC(C)N(C)C(=O)c1cc(-c2ccnc(Nc3ccc(N4CCCC4=O)cc3)n2)ccn1 [Compound A325],2.04

# Test system: not listed separately
# Test: Log p of the compounds of Table A
# Settings: not given
# Remark: another data set of the same source
row,Compound,Log p
1,COCCN(C)C(=O)c1cc(-c2ccnc(Nc3cc(F)ccc3F)n2)ccn1 [Compound A230],2.52
2,CCN(C)C(=O)c1cc(-c2ccnc(Nc3cc(Cl)ccc3F)n2)ccn1 [Compound A232],2.94
3,CCCN(CC)C(=O)c1cc(-c2ccnc(Nc3cc(Cl)ccc3F)n2)ccn1 [Compound A234],3.69
4,CCCN(CC1CC1)C(=O)c1cc(-c2ccnc(Nc3cc(Cl)ccc3F)n2)ccn1 [Compound A242],4.20
5,CCCCN(C)C(=O)c1cc(-c2ccnc(Nc3cccc(C(C)C)c3)n2)ccn1 [Compound A262],4.04

# Test system: not listed separately
# Test: Log p of the compounds of Table A
# Settings: not given
# Remark: another data set of the same source
row,logP,Compound
1,2.5,"CN(C)C(=O)c1cc(-c2ccnc(Nc3cccc(Cl)c3)n2)ccn1 [Compound A76, 4-{2-[(3-chlorophenyl)amino]pyrimidin-4-yl}-N,N-dimethylpyridine-2-carboxamide]"
2,3.19,"CCN(CC)C(=O)c1cc(-c2ccnc(Nc3cccc(Cl)c3)n2)ccn1 [Compound A77, 4-{2-[(3-chlorophenyl)amino]pyrimidin-4-yl}-N,N-diethylpyridine-2-carboxamide]"
3,4.46,"CON=C(C)c1cc(-c2ccnc(Nc3cccc(Cl)c3)n2)ccn1 [Compound A93, N-(3-chlorophenyl)-4-{2-[-N-methoxyethanimidoyl]pyridin-4-yl}pyrimidin-2-amine]"
4,2.44,"CC(=NNCCC#N)c1cc(-c2ccnc(Nc3cccc(Cl)c3)n2)ccn1 [Compound A108, 3-{2-[1-(4-{2-[(3-chlorophenyl)amino]pyrimidin-4-yl}pyridin-2-yl)ethylidene]hydrazinyl}propanenitrile]"
5,3.5,"CC(=O)c1cc(-c2ccnc(Nc3cccc(Cl)c3)n2)ccn1 [Compound A110, 1-(4-{2-[(3-chlorophenyl)amino]pyrimidin-4-yl}pyridin-2-yl)ethanone]"
